Results as given in patent publication US20250332173A1, “COMPOUNDS AND METHODS FOR MODULATING NUCLEIC ACID SPLICING” (REMIX THERAPEUTICS INC., priority 2021, published 2025).
pIC50: −log10 of the molar value. Read-outs that look alike come from different tables or passages of the source.

System: Target C
Assay: RT-qPCR splicing assay panel, Target C canonical junction (CJ) mRNA
Assay type: cell-based, human
Settings: Table 5 panel, canonical junction qPCR, compound concentration having 50% response in CJ decrease, read-out: Target C IC50 (decrease in CJ mRNA levels)
Outline: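 Canonical-junction transcript levels in compound-treated A673 or K562 cells (24 h, up to 10 uM final) were determined from lysates by RT-qPCR with housekeeping-gene normalization.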

Structure (SMILES) | pIC50 (Homo sapiens) | pIC50
Cc1cn2cc(-c3ccc4c(c3)CCN(C3CCNCC3)C4=O)cc(C(F)(F)F)c2n1 [Compound 252] | < 5.00 | –
Cc1cn2nc(-c3ccc4c(=O)n(C5CCNC5)ncc4c3)cc(C)c2n1 (centres unmarked) [Compound 264] | < 5.00 | –
Cc1cn2nc(-c3ccc4c(=O)n(C5CCNCC5)ncc4c3)nc2c(C)n1 [Compound 259] | 6.00 to 7.00 | –
Cn1cc2ccc(-c3ccc4c(=O)n(C5CCNCC5)ncc4c3)cc2n1 [Compound 263] | < 5.00 | –
Cc1cn2cc(-c3ccc4c(=O)n(C5CCNCC5)cnc4c3)c(C)cc2n1 [Compound 244] | < 5.00 | –
Cc1cn2nc(-c3cc(F)c4c(=O)n(C5CCNCC5)cnc4c3)cc(C)c2n1 [Compound 243] | > 7.00 | –
Cc1cn2cc(-c3ccc4c(=O)n(C5CCN(C)CC5)cnc4c3)c(C)cc2n1 [Compound 246] | 5.00 to 6.00 | –
Cc1cn2cc(-c3ccc4c(=O)n(C5CCNCC5)ncc4c3)cc(F)c2n1 [Compound 248] | 6.00 to 7.00 | –
Cc1cn2cc(-c3ccc4c(=O)n(C5CCNCC5)ncc4c3)c(C)cc2n1 [Compound 254] | 5.00 to 6.00 | –
Cc1nc2c(F)cc(-c3ccc4c(=O)n(C5CCNCC5)ncc4c3)cc2o1 [Compound 250] | 6.00 to 7.00 | –
Cc1cn2cc(-c3ccc4c(=O)n(C5CCNCC5)ncc4c3)cc(C(F)(F)F)c2n1 [Compound 262] | 5.00 to 6.00 | –
Cc1cn2cc(-c3ccc4c(=O)n(C5CCNCC5)ncc4c3)ncc2n1 [Compound 255] | < 5.00 | –
Cc1cn2cc(-c3ccc4c(=O)n(C5CCNCC5)ncc4c3)cc(Cl)c2n1 [Compound 256] | < 5.00 | –
Cc1nc2c(F)cc(-c3ccc4c(=O)n(C5CCNCC5)ncc4c3)cc2s1 [Compound 253] | 5.00 to 6.00 | –
Cc1cn2cc(-c3ccc4c(c3)CCN(C3CCNCC3)C4=O)cc(F)c2n1 [Compound 247] | 5.00 to 6.00 | –
Cc1cc(-c2ccc3c(=O)n(C4CCNCC4)ncc3c2)cc2cn(C)nc12 [Compound 251] | 6.00 to 7.00 | –
Cn1cc2cc(-c3ccc4c(=O)n(C5CCNCC5)ncc4c3)cc(F)c2n1 [Compound 249] | 5.00 to 6.00 | –
Cc1nc2c(F)cc(-c3ccc4c(=O)n(C5CCNCC5)cnc4c3)cc2o1 [Compound 245] | 6.00 to 7.00 | –
Cc1cn2nc(-c3ccc4c(=O)n([C@@H]5CCNC6(CC6)C5)cnc4c3)cc(C)c2n1 [Compound 444] | – | 6.00 to 7.00
Cc1cn2nc(-c3ccc4c(=O)n(C5CCNCC5)ncc4c3)cc2c(C)n1 [Compound 260] | 5.00 to 6.00 | –
Cc1cn2cc(-c3ccc4c(=O)n(C5CCNCC5)ncc4c3)cc(C)c2n1 [Compound 257] | 5.00 to 6.00 | –
O=c1c2ccc(-c3cn[nH]c3)cc2cnn1C1CCNCC1 [Compound 261] | < 5.00 | –
Cc1cn2nc(-c3ccc4c(=O)n(C5CCN(C)CC5)ncc4c3)cc(C)c2n1 [Compound 265] | 6.00 to 7.00 | –
